Measured values published in PMC12409781 (RSC Advances, 2025).

Legend:
Assay in all cases: Cell viability assay
Format in all cases: cell-based
MIA PaCa-2 = details: Homo sapiens, MIA PaCa-2, 72 h, read-out: IC50 MIA PaCa-2
KPC = details: 72 h, read-out: IC50 KPC
Panc-1 = details: Homo sapiens, PANC-1, 72 h, read-out: IC50 Panc-1, 72 hours, CCK-8

`Nc1ccn([C@@H]2O[C@H](CO)[C@@H](O)C2(F)F)c(=O)n1` [Gemcitabine] gave an IC50 (MIA PaCa-2) of 7.83 ± 0.28 µM, an IC50 (KPC) of 5.36 ± 0.25 µM and an IC50 (Panc-1) of 11.6 ± 0.56 µM.
